Assay results published in patent US4880820A, “Guanine derivatives” (Merck & Co., Inc., priority 1988, dated 1989).
Values after ≈ are worked out from the molar mass of the structure shown. “Also recorded” adds a separate entry of the source.

What was measured:
herpes viruses = assay: antiviral activity against herpes viruses (general statement)
[1] = tested on: Herpes simplex virus type 1 (HSV-1), strain Schooler; assay: Oral treatment of intraperitoneal HSV-1 infection of mice (Example 17); type: in vivo, ICR/Ha mice; conditions: for Percent Survival: at 15 days
Procedure: Twenty gram ICR/Ha mice were injected intraperitoneally (i.p.) with 0.5 ml of a 10^-5 dilution of a stock preparation of Herpes Simplex virus type 1 (HSV-1), strain Schooler. This virus challenge infected mice with approximately 50 to 100 LD50. Starting immediately after virus infection and continuing twice daily for 7 days, each animal was treated by oral gavage in groups of 10 with: 500 μg, 125 μg, 31 μg or 8 μg of (S)-9-(2,3-dihydroxy-1propoxymethyl)guanine; 500 μg, 125 μg, 31 μg or 8 μg of acyclovir or placebo (physiological saline, pH 11.5). All compounds were solubilized in physiological saline, pH 11.5.
(§1) The statistical analyses were carried out as described in Example 15.

[2] = tested on: Herpes simplex virus type 1 (HSV-1), strain Schooler; assay: Parenteral (subcutaneous) treatment of Herpes simplex virus type 1 infection in mice; type: in vivo, ICR/Ha mice; conditions: for Avg. Survival Time / Percent Survival: s.c.
Procedure: (§2) Twenty gram ICR/Ha mice were injected intraperitoneally (ip) with 0.5 ml of a 10^-5 dilution of a stock preparation of Herpes simplex virus type 1 (HSV-1), strain Schooler. This virus challenge infected each animal with approximately 50 to 100 LD50. Starting immediately after virus infection and continuing twice daily for 4 days, each animal was injected subcutaneously in groups of 10 with: 125 μg, 31 μg, 8 μg or 2 μg of compounds A, B or C; or placebo (physiological saline, pH 11.5). All compounds were solubilized in physiological saline, pH 11.5. The mice were observed daily for 15 days at the same time each day and the day of death was recorded for each animal.
Statistical analyses [reference: Liddel, F.D.K., Evaluation of Survival in Challenge Experiments, Microbiol. Rev., 42, 237 (1978)]were performed on survival times transformed by the negative exponential transformation:
t=number of days an animal survived
T=duration of trial (15 days)
A continuity correction was used to account for daily observation:
Within each group, mice surviving through the trial period were assigned equally values of 0.9 and 1.0 to adjust for termination of the trial.
Average survival time per group was calculated from average corrected transformed survival times [fc (t)] as follows:
t avg=[T/log(0.1).[log(1-fc (t)]

[3] = tested on: Herpes simplex virus Type 1 (Schooler); assay: Method 2: virus plaque reduction in MRC-5 cells, HSV-1; type: cell-based
Procedure: Method 2: Confluent monolayers of MRC-5 cells were incubated for one hour at 37° C. with 50-100 plaque forming units of the indicated virus. Following incubation, the cell monolayers were refed with maintenance medium containing 2% methyl cellulose and the chemical agent indicated. Duplicate cultures were incubated with each concentration of the chemical agent tested. Following further incubation for 3 days at 37° C., the monolayers were stained and the developed virus plaques were counted. The concentration (μg/ml) of each chemical agent which reduced plaque development by 50% (ED50) was determined.

[4] = tested on: Herpes simplex virus type 1 (HSV-1), strain Schooler; assay: Oral treatment of intraperitoneal HSV-1 infection of mice (Example 16); type: in vivo, ICR/Ha mice
Procedure: as §2, with “(i.p.)” for “(ip)”, “LD50 s.” for “LD50.”, “7” for “4”, “treated by oral gavage” for “injected subcutaneously”, “with: 250 μg, 125 μg, 8 μg or 2 μg of (S)-9-(2,3-dihydroxy-1-propoxymethyl)guanine; 500 μg,” for “with:”, “racemic 9-(2,3-dihydroxy-1-propoxymethyl)guanine;” for “compounds A, B or C;”
as §1

[5] = tested on: Herpes simplex virus Type 1 (Schooler); assay: Method 1: inhibition of viral induced cytopathology in primary rabbit kidney cell cultures, HSV-1; type: cell-based; conditions: Human alphaherpesvirus 1; HSV-1 (Schooler), primary rabbit kidney cells; total suppression of cytopathology in 50% of cultures; read-out: Minimum Effective Concentration
Procedure: (§3) Method 1: Confluent monolayers of primary rabbit kidney cell cultures were refed with maintenance medium containing serial dilutions of the test compounds and incubated overnight at 37° C. At each dilution, four cultures were challenged with approximately 10 TCID50 HSV-1, four cultures were challenged with approximately 10 TCID50 HSV-2,and two cultures were left as toxicity controls. Cultures were reincubated at 37° C. and observed for viral induced cytopathology at days 5 and 7. Minimum Effective Concentration (μg/ml) is defined as the concentration of antiviral compound required to totally suppress the development of viral cytopathology in 50% of the infected rabbit kidney cell cultures.

[6] = tested on: Herpes simplex virus Type 2 (Curtis); assay: Method 1: inhibition of viral induced cytopathology in primary rabbit kidney cell cultures, HSV-2; type: cell-based; conditions: Human alphaherpesvirus 2; HSV-2 (Curtis), primary rabbit kidney cells; total suppression of cytopathology in 50% of cultures; read-out: Minimum Effective Concentration
Procedure: as §3

[7] = 125 μg/dose twice daily for 7 days, 12.5 mg/kg/day
[8] = 500 μg/dose twice daily for 7 days, 50 mg/kg/day

SMILES: Nc1nc2c(ncn2COC[C@@H](O)CO)c(=O)[nH]1 [A, (S)-9-(2,3-dihydroxy-1-propoxymethyl)guanine]
- antiviral (antiherpetic) activity (herpes viruses; general statement in words): substantial antiviral activity against various herpes viruses; also recorded: potent antiherpetic activity
- antiviral (antiherpetic) activity compared with acyclovir (herpes viruses; vs 9-(2-hydroxyethoxymethyl)guanine (acyclovir)): significantly greater antiviral activity; also recorded: much more potent
- antiherpetic activity compared with the racemic mixture or the (R)-enantiomer (herpes viruses; vs racemic mixture or (R)-enantiomer): better than the corresponding racemic mixture or the (R)-enantiomer
- Avg. Survival Time ([1]; 8 μg/dose twice daily for 7 days, 0.8 mg/kg/day, ^b (all): not statistically different from placebo): 6.2 days
- Percent Survival ([1]; 8 μg/dose twice daily for 7 days, 0.8 mg/kg/day): 0%
- Avg. Survival Time ([1]; 31 μg/dose twice daily for 7 days, 3.1 mg/kg/day, ^b (all): not statistically different from placebo): 6.9 days
- Percent Survival ([1]; 31 μg/dose twice daily for 7 days, 3.1 mg/kg/day): 0%
- Avg. Survival Time [1, 7]: 8.1 days
- Percent Survival [1, 7]: 0%
- Avg. Survival Time [1, 8]: 12.9 days
- Percent Survival [1, 8]: 30%
- protection over placebo-treated animals, as measured by average survival time ([1]; 12.5 mg/kg/day): conferred significant protection over placebo-treated animals
- protection over placebo-treated animals, as measured by average survival time ([1]; 50 mg/kg/day): conferred significant protection over placebo-treated animals
- relative potency to acyclovir ([1]; statistically significant): 2.8
- relative potency of A to C ([2]; parallel line analysis, not statistically significant): 2.3
- relative potency of A to B ([2]; parallel line analysis, statistically significant): 5.3
- Avg. Survival Time ([2]; 2 μg/dose twice daily for 4 days, 0.2 mg/kg/day, ^3 (all): not statistically different from placebo): 6.1 days
- Percent Survival ([2]; 2 μg/dose twice daily for 4 days, 0.2 mg/kg/day, at 15 days): 0%
- Avg. Survival Time ([2]; 8 μg/dose twice daily for 4 days, 0.8 mg/kg/day, ^3 (all): not statistically different from placebo): 6.7 days
- Percent Survival ([2]; 8 μg/dose twice daily for 4 days, 0.8 mg/kg/day, at 15 days): 0%
- Avg. Survival Time ([2]; 31 μg/dose twice daily for 4 days, 3.1 mg/kg/day, ^3 (all): not statistically different from placebo): 7.6 days
- Percent Survival ([2]; 31 μg/dose twice daily for 4 days, 3.1 mg/kg/day, at 15 days): 10%
- Avg. Survival Time ([2]; 125 μg/dose twice daily for 4 days, 12.5 mg/kg/day, ^3 (B, acyclovir): not statistically different from placebo): 10.7 days
- Percent Survival ([2]; 125 μg/dose twice daily for 4 days, 12.5 mg/kg/day, at 15 days (acyclovir not at the same time)): 40%
- fold more effective than B in protecting cell cultures against HSV-1 infection ([3]; A vs B, conclusion of Example 14 (Methods 1 and 2)): 10 to 25 fold
- fold more active than C in protecting cell cultures against HSV-1 infection ([3]; A vs C, conclusion of Example 14 (Methods 1 and 2)): about 2 fold
- EC50 ([3]; Human alphaherpesvirus 1, MRC5, 72 h, HSV-1 (Schooler), MRC-5 cells, 3 days, 50% reduction of plaque development, read-out: ED50 (the source's name)): 0.5 µg/mL (≈ 1.96 µM)
- Avg. Survival Time ([4]; 2 μg/dose twice daily for 7 days, 0.2 mg/kg/day, ^3 (all): not statistically different from placebo): 7.2 days
- Percent Survival ([4]; 2 μg/dose twice daily for 7 days, 0.2 mg/kg/day, at 15 days): 0%
- Avg. Survival Time ([4]; 8 μg/dose twice daily for 7 days, 0.8 mg/kg/day, ^3 (all): not statistically different from placebo): 7.2 days
- Percent Survival ([4]; 8 μg/dose twice daily for 7 days, 0.8 mg/kg/day, at 15 days): 0%
- Avg. Survival Time ([4]; 31 μg/dose twice daily for 7 days, 3.1 mg/kg/day, ^3 (all): not statistically different from placebo): 7.5 days
- Percent Survival ([4]; 31 μg/dose twice daily for 7 days, 3.1 mg/kg/day, at 15 days (acyclovir not at the same time)): 0%
- Avg. Survival Time ([4]; 125 μg/dose twice daily for 7 days, 12.5 mg/kg/day, ^3 (racemate, acyclovir): not statistically different from placebo): 10.2 days
- Percent Survival ([4]; 125 μg/dose twice daily for 7 days, 12.5 mg/kg/day, at 15 days (acyclovir not at the same time)): 20%
- Avg. Survival Time ([4]; 250 μg/dose twice daily for 7 days, 25 mg/kg/day): 9.8 days
- Percent Survival ([4]; 250 μg/dose twice daily for 7 days, 25 mg/kg/day, at 15 days): 10%
- protection over placebo-treated animals, as measured by average survival time ([4]; 12.5 mg/kg/day): conferred significant protection over placebo-treated animals
- protection over placebo-treated animals, as measured by average survival time ([4]; 25 mg/kg/day): conferred significant protection over placebo-treated animals
- minimal effective concentration [5]: 0.8 to 1.5 µg/mL
- minimal effective concentration [6]: 3.1 µg/mL
